Measured values from the NIST ThermoML archive (doi:10.1016/j.fluid.2005.04.008).
± gives the expanded uncertainty stated by the source.

Test: xn = mol fraction of the nth substance listed
Conditions: Liquid

What does the source list for CCCCCCCCCC=CC=CC=CC=CC=CC=CC(=O)OCC [docosahexaenoic acid, ethyl ester] + O=C=O?
mass density (313 K, x2 = 0.5325): 912.2 ± 2.6 kg/m3; mass density (313 K, x2 = 0.6836): 915.9 ± 2 kg/m3; mass density (313 K, x2 = 0.7773): 919.1 ± 1.7 kg/m3; mass density (313 K, x2 = 0.849): 920.8 ± 1.5 kg/m3; mass density (313 K, x2 = 0.8795): 921.3 ± 1.4 kg/m3; mass density (313 K, x2 = 0.8972): 922.1 ± 1.4 kg/m3; mass density (313 K, x2 = 0.9121): 923 ± 1.3 kg/m3; mass density (313 K, x2 = 0.9222): 923.7 ± 1.3 kg/m3; mass density (313 K, x2 = 0.9266): 923.8 ± 1.3 kg/m3; mass density (313 K, x2 = 0.9335): 924 ± 1.3 kg/m3; mass density (313 K, x2 = 0.9366): 923.9 ± 1.3 kg/m3; mass density (313 K, x2 = 0.9392): 924.1 ± 1.3 kg/m3; mass density (313 K, x2 = 0.9443): 921.9 ± 1.4 kg/m3; mass density (333 K, x2 = 0.5583): 894.9 ± 2.5 kg/m3; mass density (333 K, x2 = 0.6793): 896.5 ± 2.1 kg/m3; mass density (333 K, x2 = 0.7551): 898.4 ± 1.8 kg/m3; mass density (333 K, x2 = 0.7811): 899.5 ± 1.8 kg/m3; mass density (333 K, x2 = 0.8154): 900 ± 1.7 kg/m3; mass density (333 K, x2 = 0.8278): 900.5 ± 1.6 kg/m3; mass density (333 K, x2 = 0.8411): 900.7 ± 1.6 kg/m3; mass density (333 K, x2 = 0.8612): 900.8 ± 1.6 kg/m3; mass density (333 K, x2 = 0.8784): 901 ± 1.5 kg/m3; mass density (333 K, x2 = 0.8918): 901.4 ± 1.5 kg/m3; mass density (333 K, x2 = 0.9022): 901.3 ± 1.5 kg/m3; mass density (333 K, x2 = 0.9114): 900.5 ± 1.5 kg/m3; mass density (333 K, x2 = 0.9221): 899 ± 1.6 kg/m3; mass density (333 K, x2 = 0.9419): 887.6 ± 1.7 kg/m3

With CCCCC/C=C\C/C=C\CCCCCCCC(=O)OC [methyl (Z,Z)-9,12-octadecadienate] + O=C=O as the molecule, how does the mass density (313 K, x2 = 0.5217) read?
Its mass density is 879.7 ± 1.6 kg/m3.

What about the mass density (313 K, x2 = 0.6288) of the same molecule?
Its mass density is 881.5 ± 1.6 kg/m3.

What about the mass density (313 K, x2 = 0.7185) of the same molecule?
Its mass density is 884.5 ± 1.6 kg/m3.

What about the mass density (313 K, x2 = 0.758) of the same molecule?
Its mass density is 888.1 ± 1.6 kg/m3.

And the mass density (313 K, x2 = 0.8057)?
Its mass density is 890.6 ± 1.5 kg/m3.

What about the mass density (313 K, x2 = 0.8337) of the same molecule?
The mass density was 892.9 ± 1.5 kg/m3.

And the mass density (313 K, x2 = 0.8624)?
The mass density was 895.4 ± 1.5 kg/m3.

And the mass density (313 K, x2 = 0.8862)?
Its mass density is 896.8 ± 1.5 kg/m3.

And the mass density (313 K, x2 = 0.8984)?
Its mass density is 895.2 ± 1.5 kg/m3.

What about the mass density (313 K, x2 = 0.9209) of the same molecule?
The mass density was 892.9 ± 1.5 kg/m3.

What about the mass density (313 K, x2 = 0.9289) of the same molecule?
The mass density was 890.5 ± 1.6 kg/m3.

And the mass density (313 K, x2 = 0.9388)?
Its mass density is 885.7 ± 1.7 kg/m3.

What about the mass density (333 K, x2 = 0.6128) of the same molecule?
Its mass density is 868.3 ± 1.7 kg/m3.

What about the mass density (333 K, x2 = 0.7016) of the same molecule?
Its mass density is 870.8 ± 1.7 kg/m3.

What about the mass density (333 K, x2 = 0.791) of the same molecule?
Its mass density is 872.8 ± 1.7 kg/m3.

What about the mass density (333 K, x2 = 0.8255) of the same molecule?
The mass density was 874.1 ± 1.7 kg/m3.

What about the mass density (333 K, x2 = 0.852) of the same molecule?
Its mass density is 875 ± 1.7 kg/m3.

What about the mass density (333 K, x2 = 0.8742) of the same molecule?
Its mass density is 874.1 ± 1.7 kg/m3.

And the mass density (333 K, x2 = 0.8981)?
Its mass density is 873.4 ± 1.7 kg/m3.

And the mass density (333 K, x2 = 0.9048)?
The mass density was 872.7 ± 1.7 kg/m3.

What about the mass density (333 K, x2 = 0.9102) of the same molecule?
Its mass density is 871.7 ± 1.7 kg/m3.

And the mass density (333 K, x2 = 0.9156)?
The mass density was 870.5 ± 1.7 kg/m3.

What about the mass density (333 K, x2 = 0.9193) of the same molecule?
The mass density was 870 ± 1.8 kg/m3.

And the mass density (333 K, x2 = 0.9264)?
The mass density was 864.7 ± 1.9 kg/m3.

What about the mass density (333 K, x2 = 0.934) of the same molecule?
The mass density was 860.3 ± 2.3 kg/m3.

And the mass density (333 K, x2 = 0.9509)?
The mass density was 838.1 ± 2.6 kg/m3.

With CCCCCCCCCC=CC=CC=CC=CC=CC(=O)OCC [eicosapentaenoic acid, ethyl ester] + O=C=O as the molecule, how does the mass density (313 K, x2 = 0.5962) read?
Its mass density is 907.6 ± 1.6 kg/m3.

What about the mass density (313 K, x2 = 0.6865) of the same molecule?
Its mass density is 911.9 ± 1.5 kg/m3.

What about the mass density (313 K, x2 = 0.7582) of the same molecule?
The mass density was 915.2 ± 1.4 kg/m3.

What about the mass density (313 K, x2 = 0.8265) of the same molecule?
Its mass density is 916.8 ± 1.3 kg/m3.

What about the mass density (313 K, x2 = 0.8496) of the same molecule?
Its mass density is 916.3 ± 1.3 kg/m3.

What about the mass density (313 K, x2 = 0.8708) of the same molecule?
The mass density was 916 ± 1.3 kg/m3.

What about the mass density (313 K, x2 = 0.8826) of the same molecule?
The mass density was 916.1 ± 1.3 kg/m3.

What about the mass density (313 K, x2 = 0.8921) of the same molecule?
Its mass density is 916 ± 1.3 kg/m3.

And the mass density (313 K, x2 = 0.9008)?
Its mass density is 915.5 ± 1.3 kg/m3.

What about the mass density (313 K, x2 = 0.9091) of the same molecule?
The mass density was 915.2 ± 1.3 kg/m3.

What about the mass density (313 K, x2 = 0.9184) of the same molecule?
The mass density was 913.7 ± 1.4 kg/m3.

What about the mass density (313 K, x2 = 0.9264) of the same molecule?
Its mass density is 912.3 ± 1.4 kg/m3.

And the mass density (313 K, x2 = 0.9402)?
The mass density was 906.6 ± 1.5 kg/m3.

And the mass density (333 K, x2 = 0.2842)?
Its mass density is 886.2 ± 2 kg/m3.

What about the mass density (333 K, x2 = 0.5005) of the same molecule?
Its mass density is 888.6 ± 1.8 kg/m3.

What about the mass density (333 K, x2 = 0.5996) of the same molecule?
The mass density was 890.9 ± 1.7 kg/m3.

And the mass density (333 K, x2 = 0.6826)?
The mass density was 892.9 ± 1.6 kg/m3.

What about the mass density (333 K, x2 = 0.7423) of the same molecule?
Its mass density is 894.3 ± 1.6 kg/m3.

What about the mass density (333 K, x2 = 0.7876) of the same molecule?
Its mass density is 895.3 ± 1.5 kg/m3.

And the mass density (333 K, x2 = 0.8186)?
Its mass density is 895.6 ± 1.5 kg/m3.

What about the mass density (333 K, x2 = 0.8338) of the same molecule?
Its mass density is 895.5 ± 1.5 kg/m3.

What about the mass density (333 K, x2 = 0.8541) of the same molecule?
Its mass density is 895.1 ± 1.5 kg/m3.

What about the mass density (333 K, x2 = 0.8766) of the same molecule?
Its mass density is 894.8 ± 1.5 kg/m3.

And the mass density (333 K, x2 = 0.8927)?
Its mass density is 894.1 ± 1.5 kg/m3.

What about the mass density (333 K, x2 = 0.9043) of the same molecule?
The mass density was 892.8 ± 1.5 kg/m3.

What about the mass density (333 K, x2 = 0.916) of the same molecule?
The mass density was 890.3 ± 1.6 kg/m3.

What about the mass density (333 K, x2 = 0.9324) of the same molecule?
Its mass density is 879.8 ± 1.8 kg/m3.

With CCCCCCCC/C=C\CCCCCCCC(=O)OC [methyl cis-9-octadecenoate] + O=C=O as the molecule, how does the mass density (313 K, x2 = 0.4876) read?
The mass density was 868.6 ± 1.7 kg/m3.

What about the mass density (313 K, x2 = 0.5963) of the same molecule?
Its mass density is 874.2 ± 1.7 kg/m3.

What about the mass density (313 K, x2 = 0.7077) of the same molecule?
The mass density was 878.5 ± 1.6 kg/m3.

And the mass density (313 K, x2 = 0.7931)?
Its mass density is 884.3 ± 1.6 kg/m3.

And the mass density (313 K, x2 = 0.833)?
Its mass density is 885.5 ± 1.6 kg/m3.

What about the mass density (313 K, x2 = 0.8595) of the same molecule?
Its mass density is 887.5 ± 1.5 kg/m3.

What about the mass density (313 K, x2 = 0.8736) of the same molecule?
The mass density was 887.5 ± 1.5 kg/m3.

What about the mass density (313 K, x2 = 0.8891) of the same molecule?
The mass density was 886.9 ± 1.5 kg/m3.

And the mass density (313 K, x2 = 0.9111)?
Its mass density is 886.4 ± 1.6 kg/m3.

What about the mass density (313 K, x2 = 0.9231) of the same molecule?
Its mass density is 885.1 ± 1.6 kg/m3.

And the mass density (313 K, x2 = 0.9312)?
Its mass density is 882.7 ± 1.6 kg/m3.

And the mass density (313 K, x2 = 0.9387)?
The mass density was 881.2 ± 1.6 kg/m3.

And the mass density (333 K, x2 = 0.6086)?
The mass density was 857.1 ± 1.8 kg/m3.

What about the mass density (333 K, x2 = 0.6969) of the same molecule?
Its mass density is 859.9 ± 1.8 kg/m3.

What about the mass density (333 K, x2 = 0.7916) of the same molecule?
The mass density was 862.3 ± 1.7 kg/m3.

What about the mass density (333 K, x2 = 0.8255) of the same molecule?
Its mass density is 864.4 ± 1.7 kg/m3.

And the mass density (333 K, x2 = 0.8509)?
Its mass density is 865.8 ± 1.7 kg/m3.

And the mass density (333 K, x2 = 0.8813)?
Its mass density is 867.4 ± 1.7 kg/m3.

What about the mass density (333 K, x2 = 0.8901) of the same molecule?
The mass density was 864.5 ± 1.7 kg/m3.

And the mass density (333 K, x2 = 0.9072)?
Its mass density is 864.9 ± 1.7 kg/m3.

What about the mass density (333 K, x2 = 0.9167) of the same molecule?
The mass density was 863.2 ± 1.7 kg/m3.

And the mass density (333 K, x2 = 0.9213)?
The mass density was 863.1 ± 1.8 kg/m3.

What about the mass density (333 K, x2 = 0.9282) of the same molecule?
The mass density was 859.2 ± 1.8 kg/m3.

What about the mass density (333 K, x2 = 0.9341) of the same molecule?
The mass density was 858.9 ± 1.9 kg/m3.

What about the mass density (333 K, x2 = 0.943) of the same molecule?
The mass density was 851.6 ± 2.1 kg/m3.
